# Where “and” joins values, the source holds several entries; their conditions need not be identical. Equal entries are not always repeated.
# B1: PDR001 (spartalizumab) (antibody, V domains shown)
# VH: EVQLVQSGAEVKKPGESLRISCKGSGYTFTTYWMHWVRQATGQGLEWMGNIYPGTGGSNFDEKFKNRVTITADKSTSTAYMELSSLRSEDTAVYYCTRWTTGTGAYWGQGTTVTVSS
# VL: EIVLTQSPATLSLSPGERATLSCKSSQSLLDSGNQKNFLTWYQQKPGQAPRLLIYWASTRESGVPSRFSGSGSGTDFTFTISSLEAEDAATYYCQNDYSYPYTFGQGTKVEIK
# How the values were obtained:
# HNSCC = HNSCC patients progressed on platinum-based chemotherapy; cited from earlier work
# [1] = test system: phosphorylated ERK1/2 (pERK); experiment: in vitro pERK inhibition in KYSE-520; type: cell-based; settings: Homo sapiens; KYSE-520 cells
# Text: (§1) SHP2 inhibition can be measured by assessing biomarkers within the MAPK signaling pathway, such as decreased levels of phosphorylated ERK1/2 (pERK) and downregulation of dual specificity phosphatase 6 (DUSP6) mRNA transcript.
# [2] = test system: phosphorylated ERK1/2 (pERK); experiment: in vitro pERK inhibition in DETROIT-562; type: cell-based; settings: Homo sapiens; DETROIT-562 cells
# Text: as §1
# [3] = test system: KYSE-520 (esophageal squamous cell carcinoma) cancer cell line; experiment: antiproliferation in KYSE-520; type: cell-based; settings: Homo sapiens; KYSE-520 cells
# Text: as §1
# [4] = test system: DETROIT-562 (pharyngeal squamous cell carcinoma) cancer cell line; experiment: antiproliferation in DETROIT-562; type: cell-based; settings: Homo sapiens; DETROIT-562 cells
# [5] = test system: EGFR-dependent DETROIT-562 cancer cell line; experiment: in vivo SHP2 inhibition and efficacy, DETROIT-562 xenograft; settings: oral 20 mg/kg
# Text: as §1
# MC38 cell line = MC38 cell line in vitro proliferation/viability; type: cell-based, mouse; settings: MC38 (PTPN11 G503V) in vitro, absence of immune cells
# MC38 xenografts = MC38 xenografts in immunocompromised NSG mice; type: in vivo, mouse
# MC38 tumors = experiment: MC38 syngeneic tumors in immune-competent C57BL/6 mice, anti-tumor activity; type: in vivo, mouse; settings: day 14 post-first dose, TNO155 20 mg/kg BID, anti-PD1 10 mg/kg QW
# CD14+ monocytes = experiment: M-CSF stimulated proliferation of CD14+ monocytes (CellTiter-Glo); type: cell-based, human; settings: 50 ng/mL M-CSF, 6 days incubation
# Method: Investigation of the effect of TNO155 on M-CSF stimualted proliferation of CD14+ monocytes. Peripheral blood mononuclear cells (PBMC) were isolated from the whole blood of two donors (donor 1670 and […]) by CPT tubes and spinning at 1800 rpm for 20 minutes. CD14 positive monocytes were then isolated from PBMC using human Pan Monocyte Isolation Kit (Miltenyi Biotec #130-096-537). 5000 monocytes suspended in 100 μL RPMI media were seeded in 96 well plates with 50 ng/mL recombinant M-CSF. 24 hours later, TNO155 was added at the indicated final concentrations. A CellTiter-Glo® (CTG) cell viability assay was performed according to manufacturer's instructions using a separate plate with identically seeded cells and also performed for all plates after 6 days of incubation with TNO155. The Day 6 measurements were normalized with DMSO treated groups as 100% to evaluate the TNO155 effects on the M-CSF stimulated proliferation of monocytes and the Day 0 cell seeding measurement was indicated by the light dotted line.
# in vivo = settings: mouse
# IL-2 production = type: cell-based; settings: human blood ex vivo, super antigen stimulation with Staphylococcal enterotoxin B (SEB)
# rodent PD-1 = experiment: cross-reactivity with rodent PD-1; type: binding
# human PD-1 = molecular target: T1, human PD-1 (human, UniProt Q15116 25-167, limits assumed); experiment: Biacore (SPR); format not stated
# T1 construct: also called human PD1 antigen; Programmed Death 1
# T1 sequence (Q15116 25-167 limits assumed): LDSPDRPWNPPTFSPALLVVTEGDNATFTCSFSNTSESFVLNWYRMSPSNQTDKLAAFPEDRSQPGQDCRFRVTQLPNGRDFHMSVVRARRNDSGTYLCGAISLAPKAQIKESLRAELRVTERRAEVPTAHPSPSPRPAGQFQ
molecule,measurement,setting,value
nivolumab: anti-programmed death-1 (PD-1) antibody,survival rate at one year,HNSCC,36%
"C[C@@H]1OCC2(CCN(c3cnc(Sc4ccnc(N)c4Cl)c(N)n3)CC2)[C@@H]1N [TNO155, (3S,4S)-8-(6-amino-5-((2-amino-3-chloropyridin-4-yl)thio)pyrazin-2-yl)-3-methyl-2-oxa-8-azaspiro[4.5]decan-4-amine]",IC50,[1],8 nM and 0.0034 µg/mL
same,IC50,[2],35 nM
same,IC50,[3],100 nM
same,IC50,[4],470 nM
same,decrease in DUSP6 mRNA transcript,[5]; DETROIT-562 in vivo,approximately 95%
same,tumor regression,"[5]; twice-daily schedule, DETROIT-562",47%
same,effect on cell proliferation or viability,MC38 cell line,no effect on cell proliferation or viability
same,anti-tumor activity,"MC38 xenografts; 20 mg/kg BID, MC38 in NSG mice",lack of anti-tumor activity
same,"impact on downstream MAPK-signaling markers (phospho-ERK, phospho-RSK) in tumor cells",MC38 xenografts; MC38 with G503V mutation,no impact
same,treatment/control (T/C),MC38 tumors,33.3%
same,M-CSF stimulated proliferation of CD14+ monocytes,CD14+ monocytes,blocked
same,MTD,in vivo,20 mg/kg
B1,enhancement of IL-2 production,IL-2 production,approximately 2 fold
same,cross-reactivity with rodent PD-1,rodent PD-1,does not cross-react
same,Kd,human PD-1,0.827 nM
